Test results from publication PMC11831560, “Development of the Pyrido[2,3-d]pyrimidin-7(8H)-one Scaffold toward Potent and Selective NUAK1 Inhibitors” (ACS Medicinal Chemistry Letters, 2025).
Several values for one entry are separate records, joined by “and”; a condition that tells them apart may be missing. Identical values can stand only once.

Legend:
[1] = target: T1, MARK2 (Homo sapiens, UniProt Q7KZI7); assay: ADP-Glo biochemical assay MARK2; settings: for MARK2 pIC50 / IC50: ADP-Glo assay; for IC50: read-out: MARK2 pIC50 (converted)
T1 construct: purchased MRC PPU
Experimental: (§1) Biological experimental procedures
(§2) ADP-Glo biochemical assays
(§3) Protein kinase activity in the presence of inhibitor compounds was determined by ADP-Glo assay (Promega), as previously described.1,2 Compounds were serialised using a Labcyte Echo 520 and transferred to 384 well plates (Greiner 784201) followed by the addition 5 µL of substrate containing peptide and ATP at Km in buffer (see Table S6). 5 µL of purified protein was added and the plate was incubated for 60 minutes at room temperature (ng/well; see Table S6). 3 µL of assay mixture was transferred using an Integra Viaflo384 into a white low volume plate (Greiner 781904) prior to the addition of 3 µL of ADP-Glo Reagent™ for a further 40 minute incubation. After incubation with 6 µL of Kinase Detection Reagent for 30 minutes, plate luminescence was read (Pherastar FSX, BMG […]
(§4) 30 mM HEPES pH7.4, 3 mM MgCl2, 3 mM MnCl2, 1.2 mM DTT, 0.01% CHAPS
(§5) Table S6: Conditions for protein kinase ADP-Glo assays
(§6) ATP AT Peptide Peptide Enzyme Enzyme Assay Buffe Min.
(§7) Protein conc. P Peptide name conc. supplier amount supplier vol. r na […]
(§8) NUAK1 µM µM Sakamototide 50 µM Merck 6.7 ng PPU 10 µl A 6
(§9) A µM µM Sakamototide 100 µM Merck 1 ng PPU 10 µl B 2 […]
(§10) aMin. n: Minimum number of technical replicates per compound

[2] = target: T2, MARK1 (Homo sapiens, UniProt Q9P0L2); assay: ADP-Glo biochemical assay MARK1; settings: for MARK1 pIC50 / IC50: ADP-Glo assay; for IC50: read-out: MARK1 pIC50 (converted)
T2 construct: purchased MRC PPU
Experimental: as §1, §2, §3, §4, §5, §6, §7, §8, §9, §10

[3] = target: T3, MARK3 (Homo sapiens, UniProt P27448); assay: ADP-Glo biochemical assay MARK3; settings: for MARK3 pIC50 / IC50: ADP-Glo assay; for IC50: read-out: MARK3 pIC50 (converted)
T3 construct: purchased MRC PPU
Experimental: as §1, §2, §3, §4, §5, §6, §7, §8, §9, §10

[4] = target: T4, NUAK1 (Homo sapiens, UniProt O60285); assay: ADP-Glo biochemical assay NUAK1; design: purchased MRC PPU; settings: for NUAK1 pIC50 / IC50: ADP-Glo assay; for IC50: read-out: NUAK1 pIC50 (converted)
T4 sequence (O60285 1-661): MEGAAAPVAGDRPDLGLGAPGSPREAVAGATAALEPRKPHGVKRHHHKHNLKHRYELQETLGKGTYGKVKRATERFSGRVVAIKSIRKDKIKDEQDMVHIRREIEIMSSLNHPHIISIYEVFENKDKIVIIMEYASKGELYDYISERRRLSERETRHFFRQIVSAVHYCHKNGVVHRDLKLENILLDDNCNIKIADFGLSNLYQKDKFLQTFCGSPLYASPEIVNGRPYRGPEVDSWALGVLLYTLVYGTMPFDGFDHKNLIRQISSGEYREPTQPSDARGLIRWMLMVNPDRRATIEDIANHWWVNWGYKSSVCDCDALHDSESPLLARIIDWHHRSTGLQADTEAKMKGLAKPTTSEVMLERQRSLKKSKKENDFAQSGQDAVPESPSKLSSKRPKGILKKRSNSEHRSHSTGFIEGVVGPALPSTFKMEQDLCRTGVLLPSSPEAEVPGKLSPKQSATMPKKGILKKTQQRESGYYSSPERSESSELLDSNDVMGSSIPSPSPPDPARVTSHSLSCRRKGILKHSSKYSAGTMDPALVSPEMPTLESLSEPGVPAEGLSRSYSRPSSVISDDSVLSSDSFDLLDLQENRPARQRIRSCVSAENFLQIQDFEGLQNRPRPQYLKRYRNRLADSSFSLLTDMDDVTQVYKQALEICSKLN
Experimental: as §1, §2, §3, §4, §5, §6, §7, §8, §9, §10

[5] = target: CDK2-Cyclin A (Homo sapiens, UniProt P24941); assay: Z′-LYTE screening assay (Thermo Fisher); assay type: biochemical; design: purchased Thermo Fisher Scientific; settings: single point at 1 μM; read-out: CDK2 % Inh.
Excerpt: (§11) Activity pIC50 values and standard error of the mean (SEM) were estimated using a 4-parameter fit (Dotmatics). The SEM for all reported data was 0.2 or lower. See Experimental Procedures for minimum number of replicates per compound. Each experiment included a Standard compound whose pIC50 value was compared to a quality control chart. If the Standard pIC50 value fell outside the range of pIC50 +/-3 standard deviation, then the experiment was invalidated.
CDK2/cyclin A: Z′-LYTE™ screening assay performed by Thermo Fisher Scientific: The 2X CDK2/cyclin A / Ser/Thr 12 mixture is prepared in 50 mM HEPES pH 7.5, 0.01% BRIJ-35, 10 mM MgCl2, 1 mM EGTA. The final 10 µL Kinase Reaction consists of 1.22 - 10.3 ng CDK2/cyclin A and 2 µM Ser/Thr 12 in 50 mM HEPES pH 7.5, 0.01% BRIJ-35, 10 mM MgCl2, 1 mM EGTA. After the 1 hour Kinase Reaction incubation, 5 µL of a 1:4096 dilution of Development Reagent A is added. […]

[6] = target: T5, CDK6/Cyclin D1 (Homo sapiens, UniProt Q00534); assay: Adapta screening assay (Thermo Fisher); assay type: biochemical; settings: single point at 1 μM; read-out: CDK6 % Inh.
T5 construct: purchased Thermo Fisher Scientific
Excerpt: as §11, with “invalidated. […]” for “invalidated.”
(§12) CDK6/cyclin D1: Adapta™ screening assay was performed by Thermo Fisher Scientific. The 2X CDK6/cyclin D1 / Rb Substrate mixture is prepared in 50 mM HEPES pH 7.5, 0.01% BRIJ-35, 10 mM MnCl2, 1 mM EGTA, 2 mM DTT, 0.02% NaN3. The final 10 µL Kinase Reaction consists of 1.75 - 7 ng CDK6/cyclin D1 and 1 µM Rb Substrate in 32.5 mM HEPES pH 7.5, 0.005% BRIJ-35, 5 mM MnCl2, […]
All single point assay determinations carried out in duplicate. […]

[7] = target: T6, CDK4/Cyclin D1 (Homo sapiens, UniProt P11802); assay: Adapta screening assay (Thermo Fisher); assay type: biochemical; settings: single point at 1 μM; read-out: CDK4 % Inh.
T6 construct: purchased Thermo Fisher Scientific
Excerpt: as §11, with “invalidated. […]” for “invalidated.”
as §12, with “CDK4/cyclin D1:” for “CDK6/cyclin D1:”, “2X CDK4/cyclin” for “2X CDK6/cyclin”, “of 7.5” for “of 1.75”, “- 30” for “- 7”, “ng CDK4/cyclin” for “ng CDK6/cyclin”
0.5 mM EGTA, 1 mM DTT, 0.01% NaN3. […]

T1 sequence (Q7KZI7 whole entry): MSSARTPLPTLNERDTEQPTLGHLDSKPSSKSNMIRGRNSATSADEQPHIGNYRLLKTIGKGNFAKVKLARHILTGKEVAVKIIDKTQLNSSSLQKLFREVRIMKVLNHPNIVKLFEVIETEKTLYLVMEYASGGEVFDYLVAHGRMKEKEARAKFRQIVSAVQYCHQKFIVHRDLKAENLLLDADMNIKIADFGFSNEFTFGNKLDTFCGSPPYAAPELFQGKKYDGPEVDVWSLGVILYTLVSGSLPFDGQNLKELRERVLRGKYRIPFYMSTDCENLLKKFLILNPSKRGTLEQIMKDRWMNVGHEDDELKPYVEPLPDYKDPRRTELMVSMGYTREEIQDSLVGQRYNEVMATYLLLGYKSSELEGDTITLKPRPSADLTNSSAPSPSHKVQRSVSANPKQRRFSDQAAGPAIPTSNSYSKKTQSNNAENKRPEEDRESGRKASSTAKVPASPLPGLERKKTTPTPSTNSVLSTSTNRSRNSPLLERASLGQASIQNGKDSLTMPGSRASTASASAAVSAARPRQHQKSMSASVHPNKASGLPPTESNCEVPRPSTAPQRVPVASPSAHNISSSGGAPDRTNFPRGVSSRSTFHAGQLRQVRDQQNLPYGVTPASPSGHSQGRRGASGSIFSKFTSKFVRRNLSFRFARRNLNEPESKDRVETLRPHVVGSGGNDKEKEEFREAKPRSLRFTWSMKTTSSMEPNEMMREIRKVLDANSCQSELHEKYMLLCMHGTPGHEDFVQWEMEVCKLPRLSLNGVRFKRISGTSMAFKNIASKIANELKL
T2 sequence (Q9P0L2 whole entry): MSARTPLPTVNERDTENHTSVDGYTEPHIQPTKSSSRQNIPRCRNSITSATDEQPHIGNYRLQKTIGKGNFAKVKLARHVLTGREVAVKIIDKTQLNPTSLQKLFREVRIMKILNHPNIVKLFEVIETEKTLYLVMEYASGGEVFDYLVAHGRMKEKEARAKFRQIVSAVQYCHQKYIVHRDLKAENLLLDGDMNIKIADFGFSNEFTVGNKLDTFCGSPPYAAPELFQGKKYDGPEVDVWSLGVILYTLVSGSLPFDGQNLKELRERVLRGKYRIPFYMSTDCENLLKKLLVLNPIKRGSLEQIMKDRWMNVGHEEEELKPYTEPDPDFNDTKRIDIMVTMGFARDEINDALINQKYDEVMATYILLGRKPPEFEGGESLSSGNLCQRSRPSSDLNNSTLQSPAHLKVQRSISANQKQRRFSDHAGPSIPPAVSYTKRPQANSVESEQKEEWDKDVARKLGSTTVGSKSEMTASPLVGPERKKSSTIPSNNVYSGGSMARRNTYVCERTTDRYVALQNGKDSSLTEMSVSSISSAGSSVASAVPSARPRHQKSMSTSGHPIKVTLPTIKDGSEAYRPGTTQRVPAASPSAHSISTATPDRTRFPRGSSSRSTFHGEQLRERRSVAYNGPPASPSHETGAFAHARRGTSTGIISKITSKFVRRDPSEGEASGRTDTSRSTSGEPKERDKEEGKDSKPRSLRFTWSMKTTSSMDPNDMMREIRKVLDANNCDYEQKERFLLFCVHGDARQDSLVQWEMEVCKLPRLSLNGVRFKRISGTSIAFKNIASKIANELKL
T3 sequence (P27448 whole entry): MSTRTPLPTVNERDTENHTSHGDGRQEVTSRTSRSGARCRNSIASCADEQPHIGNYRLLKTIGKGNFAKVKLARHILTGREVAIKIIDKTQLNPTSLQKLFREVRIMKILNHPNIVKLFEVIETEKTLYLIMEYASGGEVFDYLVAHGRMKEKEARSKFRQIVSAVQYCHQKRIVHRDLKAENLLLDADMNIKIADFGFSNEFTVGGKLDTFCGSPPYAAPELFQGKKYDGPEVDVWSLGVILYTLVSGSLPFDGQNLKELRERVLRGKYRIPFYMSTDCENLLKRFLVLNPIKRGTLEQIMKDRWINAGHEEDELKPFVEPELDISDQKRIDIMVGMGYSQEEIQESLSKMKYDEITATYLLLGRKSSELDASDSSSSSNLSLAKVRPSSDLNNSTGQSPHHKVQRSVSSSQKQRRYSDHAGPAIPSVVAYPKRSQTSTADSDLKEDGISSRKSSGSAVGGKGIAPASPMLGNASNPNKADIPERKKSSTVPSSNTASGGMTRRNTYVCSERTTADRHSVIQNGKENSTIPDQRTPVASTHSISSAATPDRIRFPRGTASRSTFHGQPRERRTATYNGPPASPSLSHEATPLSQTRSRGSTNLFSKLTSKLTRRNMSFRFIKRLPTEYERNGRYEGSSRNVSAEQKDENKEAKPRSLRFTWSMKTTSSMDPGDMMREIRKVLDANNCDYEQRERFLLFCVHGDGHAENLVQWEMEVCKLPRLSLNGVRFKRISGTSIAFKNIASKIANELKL
T6 sequence (P11802 whole entry): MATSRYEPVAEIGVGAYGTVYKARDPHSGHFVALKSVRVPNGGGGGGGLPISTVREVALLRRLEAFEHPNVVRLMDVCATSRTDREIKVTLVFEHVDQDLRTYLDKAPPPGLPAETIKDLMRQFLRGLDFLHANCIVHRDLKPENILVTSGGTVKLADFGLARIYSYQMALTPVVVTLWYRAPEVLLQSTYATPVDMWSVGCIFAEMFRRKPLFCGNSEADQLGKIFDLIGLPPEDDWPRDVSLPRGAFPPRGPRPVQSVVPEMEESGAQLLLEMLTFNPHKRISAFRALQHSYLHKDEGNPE
T6 sequence (P24385 whole entry partner): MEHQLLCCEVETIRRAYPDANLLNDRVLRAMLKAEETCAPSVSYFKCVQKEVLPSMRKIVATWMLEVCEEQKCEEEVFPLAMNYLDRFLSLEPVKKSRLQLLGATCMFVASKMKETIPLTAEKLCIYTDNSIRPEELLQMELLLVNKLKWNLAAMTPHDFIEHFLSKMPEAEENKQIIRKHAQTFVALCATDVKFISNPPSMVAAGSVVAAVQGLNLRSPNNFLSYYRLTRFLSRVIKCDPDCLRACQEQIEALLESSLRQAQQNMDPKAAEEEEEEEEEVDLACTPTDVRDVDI
T5 sequence (Q00534 whole entry): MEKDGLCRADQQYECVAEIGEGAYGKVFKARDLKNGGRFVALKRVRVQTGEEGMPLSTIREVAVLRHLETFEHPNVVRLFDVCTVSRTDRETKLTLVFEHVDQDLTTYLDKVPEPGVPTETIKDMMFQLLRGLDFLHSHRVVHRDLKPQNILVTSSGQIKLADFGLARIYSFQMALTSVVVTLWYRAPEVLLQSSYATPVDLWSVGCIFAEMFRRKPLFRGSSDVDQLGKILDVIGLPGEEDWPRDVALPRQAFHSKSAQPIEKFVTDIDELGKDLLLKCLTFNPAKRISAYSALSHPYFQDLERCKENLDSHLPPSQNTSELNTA
T5 sequence (P24385 whole entry partner): as the sequence (P24385 whole entry partner) above

Row | Structure (SMILES) | MARK2 pIC50 [1] | MARK2 Fold selectivity IC50/NUAK1 IC50 [1] | MARK1 pIC50 [2] | IC50 [2] | MARK1 Fold selectivity IC50/NUAK1 IC50 [2] | MARK3 pIC50 [3] | IC50 [3] | MARK3 Fold selectivity IC50/NUAK1 IC50 [3] | ligand efficiency [4] | NUAK1 pIC50 [4] | inhibition at 1 µM [5] | IC50 [1] | inhibition at 1 µM [6] | inhibition at 1 µM [7] | IC50 [4]
1 | CN1CCN(c2ccc(Nc3ncc4cc(C#N)c(=O)n(C5CCCC5)c4n3)cc2)CC1 [Compound 3, Narazaciclib, reference compound] | 4.8 | 603 fold | 5.2 | 5.89 µM | 224 fold | 5.8 | 1.48 µM | 56 fold | 0.33 | 7.58 | – | – | – | – | –
2 | Cc1cc(=O)n(C2CCCC2)c2nc(Nc3ccc(N4CCN(C)CC4)cc3)ncc12 [Compound 4] | 5.5 | 741 fold | 5.5 | 2.95 µM | 646 fold | 6.4 | 0.437 µM | 95 fold and 96 fold | – | 8.3 | 57% | 3.39 µM | 87% | 98% | 0.00457 µM
3 | CC(C)N1CCN(c2ccc(Nc3ncc4c(n3)N(C3CCCC3)C(=O)C4)cc2)CC1 [Compound 7] | 5.4 | 1072 fold | 5.5 | 2.95 µM | 708 fold | 6.02 and 6.0 | – | 229 fold | 0.38 | 8.38 and 8.4 | 32% | 4.47 µM | 59% | 75% | –
4 | CC(C)N1CCN(c2ccc(Nc3ncc4ccn(C5CCCC5)c4n3)cc2)CC1 [Compound 8] | 5.72 and 5.7 | 417 fold | 5.8 | 1.45 µM | 316 fold | 6.2 | – | 138 fold | 0.39 | 8.3 | 84% | – | 79% | 90% | 0.00457 µM
5 | Cc1cc(=O)n(C2CCCC2)c2nc(Nc3ccc(N4CC5CC(C4)N5C)cc3)ncc12 [Compound 9] | – | – | – | – | – | 6.2 | – | 112 fold | – | 8.3 | 38% | – | 67% | 91% | 0.0055 µM
6 | CN1C2CC1CN(c1ccc(Nc3ncc4cc(C#N)c(=O)n(C5CCCC5)c4n3)cc1)C2 [Compound 10] | – | – | – | – | – | 5.9 | – | 83 fold | – | 7.8 | 94% | – | 96% | 98% | 0.0148 µM
7 | Cc1cc(=O)n(C(C)C)c2nc(Nc3ccc(N4CC5CC(C4)N5C)cc3)ncc12 [Compound 20] | – | – | – | – | – | 6.0 | – | 47 fold | – | 7.68 and 7.7 | 17% | – | 39% | 46% | –
8 | CN1C2CC1CN(c1ccc(Nc3ncc4ccn(CC5CCOCC5)c4n3)cc1)C2 [Compound 24] | 4.81 and 4.8 | 4898 fold | 5.1 | 8.91 µM | 2818 fold | 5.22 and 5.2 | – | 1905 fold | – | 8.5 | 29% | – | 11% | 29% | –
9 | CC(C)N1CCN(c2ccc(Nc3ncc4ccn(CC5CCOC(C)(C)C5)c4n3)cc2)CC1 (stereo not drawn) [Compound 26] | – | 4074 fold | – | 10.7 µM | 3890 fold | 5.2 | – | – | – | 8.6 | – | 11.2 µM | – | – | 0.00275 µM
10 | CC(C)N1CCN(c2ccc(Nc3ncc4ccn(CC5CCCO5)c4n3)cc2)CC1 (stereo not drawn) [Compound 27] | – | 603 fold | – | 1.23 µM | 363 fold | 6.2 | 0.676 µM | 200 fold and 201 fold | – | 8.5 | – | 2.04 µM | – | – | 0.00339 µM
11 | CN1C2CC1CN(c1ccc(Nc3ncc4ccn(CC5CCCO5)c4n3)cc1)C2 (stereo not drawn) [Compound 28] | – | 1047 fold | – | 4.27 µM | 776 fold | 5.68 and 5.7 | – | 380 fold | – | 8.3 | – | 5.75 µM | – | – | 0.0055 µM
